Patent US20230074252A1, “DOSAGES AND METHODS FOR TREATING PULMONARY ARTERIAL HYPERTENSION WITH RODATRISTAT” (Altavant Sciences GmbH, priority 2020, published 2023)
pIC50: −log10 of the molar value.

Tests used:
Format in all cases: in vitro ADME
[1] = Stability in human whole blood
Method: However, in human whole blood incubations, no loss of RVT-1201 was observed. […] Therefore, metabolism of RVT-1201 was assigned to a cytosolic carboxylesterase (CES1) within the PBPK model. Although the enzyme responsible for RVT-1201 elimination and KAR5417 formation has not been identified, CES1 was selected to represent the enzymatic metabolism of RVT-1201 for this fit-for-purpose PBPK model.

[2] = Stability in heat deactivated rat hepatocytes; conditions: 2 h incubation
Method: (§1) The metabolic stability of RVT-1201 was measured in vitro in hepatocytes, liver microsomes, lung microsomes, intestinal S9, lung S9, liver S9 and whole blood. The major metabolite detected in incubations with human hepatocytes was KAR5417 (KRS-02). RVT-1201 was rapidly metabolized to form KAR5417, with <5% remaining after a 2 h incubation. In heat deactivated rat hepatocytes, <5% RVT-1201 remained after 2 h incubation in the same study. Therefore, RVT-1201 metabolism (and KAR5417 formation) are not dependent on oxidative or conjugative enzymatic processes. Formation of KAR5417 from RVT-1201 is a de-esterification process, which implicates an esterase or esterases as the major mechanism. The enzyme(s) responsible for RVT-1201 metabolism to form KAR5417 has not been identified but are considered to be carboxylesterase(s). In addition, RVT-1201 metabolism and KAR5417 formation were investigated in rat and human whole blood(XT184028).

[3] = Metabolic stability in human hepatocytes; conditions: 2 h incubation
Method: as §1

[4] = Stability in rat whole blood; conditions: 2 μM, 15 min
Method: as §1

OATP1B1 = target: T1, OATP1B1 (Homo sapiens, UniProt Q9Y6L6); test: Transporter inhibition, HEK293 cells, estradiol-17β-glucuronide probe; conditions: for Calculated Values, R-value, OATP1B1 / Potential for interaction? (transporter inhibitor), OATP1B1: predicted @ 600 mg BID; for pIC50: read-out: In vitro IC50, OATP1B1
T1 construct: expressed in transfected cells; host or cells: HEK293
T1 sequence (Q9Y6L6 1-691): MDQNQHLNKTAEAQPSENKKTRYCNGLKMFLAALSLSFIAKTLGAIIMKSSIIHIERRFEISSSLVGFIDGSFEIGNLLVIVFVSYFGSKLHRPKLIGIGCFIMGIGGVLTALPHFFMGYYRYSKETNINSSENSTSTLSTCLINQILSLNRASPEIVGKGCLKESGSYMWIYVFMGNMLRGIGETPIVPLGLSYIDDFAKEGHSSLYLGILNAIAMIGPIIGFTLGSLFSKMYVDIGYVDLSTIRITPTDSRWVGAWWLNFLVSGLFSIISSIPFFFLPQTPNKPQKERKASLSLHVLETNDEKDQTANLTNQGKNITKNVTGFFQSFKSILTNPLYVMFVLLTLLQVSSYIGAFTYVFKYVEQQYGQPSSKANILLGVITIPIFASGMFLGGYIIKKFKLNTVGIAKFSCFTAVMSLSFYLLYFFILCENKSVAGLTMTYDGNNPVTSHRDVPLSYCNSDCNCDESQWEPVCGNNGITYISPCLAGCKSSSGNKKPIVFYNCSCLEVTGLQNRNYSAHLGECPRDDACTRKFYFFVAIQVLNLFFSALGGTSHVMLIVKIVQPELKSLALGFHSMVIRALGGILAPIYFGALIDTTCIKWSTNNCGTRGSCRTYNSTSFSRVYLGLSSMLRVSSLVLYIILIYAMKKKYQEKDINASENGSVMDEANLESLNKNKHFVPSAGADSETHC
Method: (§2) The competitive inhibition of specific transporters was investigated for RVT-1201 and KAR5417 in transporter-expressing in vitro systems (XT158039). Inhibition of P-gp was evaluated using a Caco-2 cell line with digoxin as probe substrate. Inhibition of OATP1B1 and OATP1B3 was evaluated using a HEK293 cell line expressing these transporters with estradiol-17β-glucuronide as probe substrate. In addition, inhibition of other transporters was also investigated (BCRP, OAT1, OAT3, OCT2, MATE1, MATE2-K). The IC50 estimates for P-gp (RVT-1201) and OATP1B1/3 (RVT-1201 and KAR5417) supported further evaluation of inhibition DDI potential using the PBPK model. For each IC50 estimate, substrate concentration and Km were used to estimate RVT-1201 and KAR5417 Ki with Equation 1 (Cheng and Prusoff, 1973).

OATP1B3 = target: T2, OATP1B3 (Homo sapiens, UniProt Q9NPD5); test: as above; conditions: for Calculated Values, R-value, OATP1B3 / Potential for interaction? (transporter inhibitor), OATP1B3: predicted @ 600 mg BID; for pIC50: read-out: In vitro IC50, OATP1B3
T2 construct: expressed in transfected cells; host or cells: HEK293
T2 sequence (Q9NPD5 1-702): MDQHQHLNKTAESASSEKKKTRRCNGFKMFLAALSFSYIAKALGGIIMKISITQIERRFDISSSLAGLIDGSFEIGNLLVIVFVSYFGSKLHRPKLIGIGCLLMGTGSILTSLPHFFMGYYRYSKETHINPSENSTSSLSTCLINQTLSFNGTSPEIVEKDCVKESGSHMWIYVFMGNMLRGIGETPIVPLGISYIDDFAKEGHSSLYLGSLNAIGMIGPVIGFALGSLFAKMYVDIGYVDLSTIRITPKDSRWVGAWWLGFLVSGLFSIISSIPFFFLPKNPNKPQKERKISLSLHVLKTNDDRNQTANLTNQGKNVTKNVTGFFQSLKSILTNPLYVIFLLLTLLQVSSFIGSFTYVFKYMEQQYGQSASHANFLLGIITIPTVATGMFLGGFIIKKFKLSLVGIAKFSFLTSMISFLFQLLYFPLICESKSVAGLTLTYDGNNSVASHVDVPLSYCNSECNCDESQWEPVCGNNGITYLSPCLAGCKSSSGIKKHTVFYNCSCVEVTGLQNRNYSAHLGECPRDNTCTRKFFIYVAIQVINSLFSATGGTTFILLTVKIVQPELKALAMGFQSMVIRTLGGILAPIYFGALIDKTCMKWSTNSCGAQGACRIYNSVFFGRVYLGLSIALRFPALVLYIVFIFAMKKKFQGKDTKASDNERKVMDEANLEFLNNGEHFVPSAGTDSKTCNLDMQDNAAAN
Method: as §2

[5] = Blood:plasma distribution; conditions: whole blood; read-out: Blood:plasma distribution (RB)
From the text: Calculation of Cmax, u, portal uses plasma Cmax, fraction of an oral dose absorbed (Fa) and measured unbound fraction in blood. For rodatristat, experimentally derived values were used for Fa determined in a rat 14C study (20%) and in vitro binding to human plasma (99.1%) and blood:plasma distribution (RB, 0.72). Walsky et al proposed a threshold where the ratio of Cmax, u, portal/Ki of <0.1 is associated with low risk. […] In the rat, the RE:R is ˜3-fold higher in portal blood compared to the periphery.

Loss in human whole blood incubations [1] | Remaining after incubation in heat deactivated rat hepatocytes [2] | Remaining after incubation with human hepatocytes [3] | Loss in rat blood [4] | Calculated Values, R-value, OATP1B1 (OATP1B1) | Potential for interaction? (transporter inhibitor), OATP1B1 (OATP1B1) | pIC50 (OATP1B1) | Calculated Values, R-value, OATP1B3 (OATP1B3) | Potential for interaction? (transporter inhibitor), OATP1B3 (OATP1B3) | Calculated Values, R-value, OATP1B3 (OATP1B3; listed as rodatristat ethyl) | pIC50 (OATP1B3) | blood plasma ratio [5] | SMILES
no loss | < 5% | < 5% | Complete loss | <1.1 | No | 4.60 | <1.1 | No | < 1.1 | 4.91 | – | CCOC(=O)[C@@H]1CC2(CCN(c3cc(O[C@H](c4ccc(Cl)cc4-c4ccccc4)C(F)(F)F)nc(N)n3)CC2)CN1 [Rodatristat ethyl, (S)-ethyl 8-(2-amino-6-((R)-1-(5-chloro-[1,1′-biphenyl]-2-yl)-2,2,2-trifluoroethoxy)pyrimidin-4-yl)-2,8-diazaspiro[4.5]decane-3-carboxylate]
– | – | – | – | <1.1 | No | 5.24 | 1.26 | Yes | – | 5.71 | 0.72 | Nc1nc(O[C@H](c2ccc(Cl)cc2-c2ccccc2)C(F)(F)F)cc(N2CCC3(CC2)CN[C@H](C(=O)O)C3)n1 [Rodatristat, (S)-8-(2-amino-6-((R)-1-(5-chloro-[1,1′-biphenyl]-2-yl)-2,2,2-trifluoroeth-oxy)pyrimidin-4-yl)-2,8-diazaspiro[4.5]decane-3-carboxylic acid]
